Some test systems named below: A549 NSCLC; DMS 114 small cell lung; HCC-2998 colon; HOP-92 NSCLC; K-562 leukemia; KM20L2 colon; M19-MEL melanoma; NCI-H522 lung; SK-MEL-28 melanoma; SNB-75 CNS.
Experiment in all cases: growth of human tumour cells (NCI), 48 h

Each structure is given as a SMILES string.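 Growth conditions: 96-well plates. Treatment: test compound, 48 hours, 5 concentrations. Analysis: linear interpolation between bracketing concentrations; unreached endpoints set to highest concentration. At the GI50, growth is halved. TGI marks complete inhibition of growth.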

Turning to `Cc1cc(=O)n(-c2ccccc2)c(=O)o1`, the TGI in the assay on A549 NSCLC, in the assay on DMS 114 small cell lung, with HCC-2998 colon, in the assay on HOP-92 NSCLC, in the assay on K-562 leukemia and in the assay with KM20L2 colon was above 100 µM in each case. The TGI in the assay on M19-MEL melanoma, in the assay on NCI-H522 lung, with SK-MEL-28 melanoma and in the assay with SNB-75 CNS was above 100 µM each time.

Turning to `COC(=O)[C@H]1[C@H]2C[C@@H]3c4[nH]c5cc(OC)ccc5c4CCN3C[C@H]2C[C@@H](OC(=O)c2cc(OC)c(OC)c(OC)c2)[C@@H]1OC`, the TGI is 55.5 µM with A549 NSCLC; 40.4 µM with DMS 114 small cell lung; 47.1 µM in the assay with HCC-2998 colon; 39.9 µM in the assay on HOP-92 NSCLC; 29.3 µM in the assay on K-562 leukemia; 35.3 µM with KM20L2 colon. Besides, the TGI in the assay with M19-MEL melanoma came to 50 µM; in the assay with NCI-H522 lung, 34 µM; in the assay with SNB-75 CNS it was 10.2 µM.

With `O=C(c1ccccc1)C(c1ccccc1)C1(O)C(=O)Nc2ccccc21` (stereo unspecified), the TGI in the assay with A549 NSCLC, in the assay with DMS 114 small cell lung, with HCC-2998 colon, with HOP-92 NSCLC, in the assay with K-562 leukemia and in the assay on KM20L2 colon was above 100 µM throughout. The TGI with M19-MEL melanoma, with NCI-H522 lung, with SK-MEL-28 melanoma and in the assay with SNB-75 CNS was above 100 µM in each case.

Take `CC1(C)C(c2ccccc2)C12CCC1(C2=O)C(c2ccccc2)C1(C)C` (stereo unspecified): the TGI came out at 75.7 µM in the assay on A549 NSCLC; 34.9 µM in the assay with DMS 114 small cell lung; 34.4 µM in the assay on HCC-2998 colon; 31.6 µM in the assay on HOP-92 NSCLC; 38.4 µM in the assay with K-562 leukemia; 52.9 µM in the assay on KM20L2 colon. Also, the TGI is 58.9 µM in the assay on M19-MEL melanoma, 30.5 µM with NCI-H522 lung, 78.3 µM with SK-MEL-28 melanoma and 90.1 µM in the assay with SNB-75 CNS.

Consider `CN1C(OCc2ccccc2)c2c(ccc3c2OCO3)C2C=Cc3cc4c(cc3C21)OCO4` (stereo unspecified), for which the TGI worked out at 0.854 µM in the assay on DMS 114 small cell lung; 2.99 µM in the assay on HCC-2998 colon; 2.3 µM in the assay on HOP-92 NSCLC; 2.95 µM with KM20L2 colon; 0.361 µM with M19-MEL melanoma; 2.16 µM in the assay with NCI-H522 lung. Moreover, the figures for the TGI in the assay on SK-MEL-28 melanoma and in the assay on SNB-75 CNS were 1.63 µM and 2.71 µM, respectively.

In the case of `C[C@@H](C1CCC2C3C(=CC(=O)[C@@]21C)[C@H](C)[C@]1(CCC(=O)O1)C1OC31)[C@H]1C[C@]2(C)O[C@@](C)(O1)OC2(C)C` (stereo partly specified), the TGI with A549 NSCLC, with DMS 114 small cell lung, in the assay on HOP-92 NSCLC, in the assay on K-562 leukemia, with KM20L2 colon and in the assay on M19-MEL melanoma was above 100 µM throughout. Also, the TGI in the assay on NCI-H522 lung and in the assay on SK-MEL-28 melanoma was above 100 µM throughout.

On to `CCCN(CCCN)/[N+]([O-])=N\O`, for which the TGI in the assay with A549 NSCLC was above 100 µM; in the assay with DMS 114 small cell lung it was above 100 µM; in the assay on HCC-2998 colon, above 100 µM; with HOP-92 NSCLC, above 100 µM; in the assay with K-562 leukemia, above 100 µM; in the assay with KM20L2 colon, 2.74 µM. The TGI in the assay on M19-MEL melanoma, in the assay with NCI-H522 lung, in the assay on SK-MEL-28 melanoma and in the assay with SNB-75 CNS was above 100 µM each time.

Take `CC(C)N(C(=O)C12C3C4C5C3C1(C(=O)N(C(C)C)C(C)C)C5(C#N)C42)C(C)C` (stereo unspecified): the TGI in the assay with A549 NSCLC was above 100 µM; with DMS 114 small cell lung, above 100 µM; in the assay on HCC-2998 colon, above 100 µM; in the assay on HOP-92 NSCLC, above 100 µM; with K-562 leukemia it was 73 µM; with KM20L2 colon, above 100 µM. Also, the TGI with M19-MEL melanoma, with NCI-H522 lung, in the assay with SK-MEL-28 melanoma and in the assay on SNB-75 CNS was above 100 µM in each case.

In the case of `O=C1c2ccccc2C(=O)C2C1C1C(=O)c3ccccc3C(=O)C21` (stereo unspecified), the TGI with A549 NSCLC, in the assay with DMS 114 small cell lung, with HCC-2998 colon, in the assay on HOP-92 NSCLC, in the assay on K-562 leukemia and with KM20L2 colon was above 100 µM in each case. Besides, the TGI in the assay with M19-MEL melanoma, in the assay with NCI-H522 lung, with SK-MEL-28 melanoma and in the assay on SNB-75 CNS was above 100 µM in each case.

On to `N=CCCN(CCC=N)c1ccc(/C=C2\CN(NC(=O)c3ccc(Cl)cc3)C(c3ccccc3)=N2)cc1`, for which the TGI in the assay on A549 NSCLC, with DMS 114 small cell lung, in the assay on HCC-2998 colon, in the assay with HOP-92 NSCLC, in the assay with K-562 leukemia and in the assay with KM20L2 colon was above 100 µM in each case. Moreover, the TGI in the assay on SK-MEL-28 melanoma and in the assay with SNB-75 CNS was above 100 µM in each case.

In the case of `CC(C)(C)N/N=C(\Cc1occc(=O)c1O)C(=O)Nc1ccc([N+](=O)[O-])cc1[N+](=O)[O-]`, the TGI in the assay on A549 NSCLC, in the assay with DMS 114 small cell lung, with HOP-92 NSCLC, in the assay on K-562 leukemia, in the assay on KM20L2 colon and in the assay with M19-MEL melanoma was above 100 µM each time. Further, the TGI with NCI-H522 lung, with SK-MEL-28 melanoma and with SNB-75 CNS was above 100 µM throughout.

Turning to `COc1cc(=O)oc(/C=C/C=O)c1C`, the TGI with A549 NSCLC is above 100 µM; in the assay with DMS 114 small cell lung, 26.3 µM; with HCC-2998 colon, 32.2 µM; with HOP-92 NSCLC it was 53.4 µM; in the assay with K-562 leukemia, above 100 µM; in the assay with KM20L2 colon it was 30.8 µM. Moreover, the TGI in the assay on M19-MEL melanoma was 35.7 µM; in the assay with NCI-H522 lung it was 35.3 µM; in the assay on SK-MEL-28 melanoma it was 26.6 µM; in the assay on SNB-75 CNS it was 32.8 µM.

As to `O=C(CC(=O)c1ccc([N+](=O)[O-])cc1)C(=O)Nc1nccs1`, the TGI in the assay with A549 NSCLC, with DMS 114 small cell lung, in the assay with HCC-2998 colon, in the assay on HOP-92 NSCLC, in the assay with K-562 leukemia and with KM20L2 colon was above 100 µM in each case. For the same molecule, the TGI in the assay with NCI-H522 lung, in the assay on SK-MEL-28 melanoma and in the assay with SNB-75 CNS was above 100 µM in each case.

Take `CCCCSN1C(=O)c2ccccc2C1=S`: the TGI is above 100 µM with A549 NSCLC; above 100 µM in the assay with DMS 114 small cell lung; above 100 µM in the assay with HCC-2998 colon; above 100 µM in the assay on HOP-92 NSCLC; 69.5 µM with K-562 leukemia; above 100 µM in the assay with M19-MEL melanoma. For the same molecule, the TGI with SK-MEL-28 melanoma and in the assay with SNB-75 CNS was above 100 µM each time.

With `C/C=C(\C)c1cc(=O)c2c(C)cc3c(c2o1)C(=O)c1c(O)c(C2CC(C)(N(C)C)C(O)C(C)O2)cc(C2CC(N(C)C)C(O)C(C)O2)c1C3=O` (stereo unspecified), the GI50 in the assay on A549 NSCLC was 0.153 µM. For the same molecule, the TGI in the assay with A549 NSCLC is 1.66 µM; in the assay with DMS 114 small cell lung it was 4.45 µM; in the assay with K-562 leukemia, above 53.6 µM; in the assay with KM20L2 colon it was 25 µM; in the assay with M19-MEL melanoma, 16.1 µM.

On to `N#CCCN(CCC#N)C(=O)c1cccc(C(=O)N(CCC#N)CCC#N)c1`, for which the TGI in the assay on A549 NSCLC was above 100 µM; in the assay on DMS 114 small cell lung it was above 100 µM; in the assay on HCC-2998 colon, above 100 µM; in the assay on HOP-92 NSCLC, above 100 µM; in the assay with K-562 leukemia, above 100 µM; in the assay with KM20L2 colon, above 63.8 µM. The values for the TGI with M19-MEL melanoma, in the assay on NCI-H522 lung and in the assay with SNB-75 CNS were above 100 µM, above 100 µM and above 59.3 µM, respectively.

With `CC(=O)[CH-]C(=O)c1ccccc1.CC(=O)[CH-]C(=O)c1ccccc1.COc1cccc([O-])c1[O-].[Ti+4]`, the GI50 in the assay with A549 NSCLC is above 100 µM; in the assay on HCC-2998 colon, 90.2 µM; in the assay on HOP-92 NSCLC, 57.8 µM; in the assay on K-562 leukemia it was 31.6 µM; in the assay on KM20L2 colon it was 52.2 µM; in the assay with M19-MEL melanoma, 32.4 µM. The GI50 with NCI-H522 lung was 17.2 µM; with SK-MEL-28 melanoma, 31 µM; in the assay on SNB-75 CNS, 43.5 µM. Moreover, the TGI with A549 NSCLC was above 100 µM; with HCC-2998 colon it was above 100 µM; with HOP-92 NSCLC, above 100 µM; in the assay on K-562 leukemia it was above 100 µM; with KM20L2 colon it was above 100 µM; in the assay with M19-MEL melanoma it was 89.7 µM. In addition, the TGI in the assay on NCI-H522 lung is 31.7 µM; in the assay on SK-MEL-28 melanoma, above 100 µM; in the assay with SNB-75 CNS it was above 100 µM.

`CN(C)c1ccc2c(c1)CN1C(=O)c3ccccc3C1=N2`: the GI50 in the assay with A549 NSCLC is above 100 µM; in the assay with DMS 114 small cell lung, above 100 µM; with HOP-92 NSCLC it was above 100 µM; with NCI-H522 lung it was 36.6 µM; with SK-MEL-28 melanoma it was above 100 µM; in the assay with SNB-75 CNS, above 100 µM. The TGI in the assay with A549 NSCLC, in the assay on DMS 114 small cell lung, in the assay with HOP-92 NSCLC, in the assay with NCI-H522 lung, in the assay with SK-MEL-28 melanoma and with SNB-75 CNS was above 100 µM in each case.

For `Cc1nc2ccccc2c(=O)n1/N=C(\N=Nc1cc(Cl)ccc1Cl)c1cccc(-c2ccco2)c1`, the TGI with A549 NSCLC was above 100 µM; in the assay with DMS 114 small cell lung it was above 100 µM; in the assay with HCC-2998 colon it was above 100 µM; with HOP-92 NSCLC it was 99.5 µM; in the assay on K-562 leukemia, above 10 µM; with M19-MEL melanoma, above 100 µM. Besides, the TGI with SK-MEL-28 melanoma and with SNB-75 CNS was above 100 µM throughout.

For `Cc1ccc(C2CC(c3ccc([N+](=O)[O-])cc3)=Nc3ccccc3S2)cc1` (stereo unspecified), the TGI in the assay on A549 NSCLC was above 100 µM; with DMS 114 small cell lung, 59 µM; with HCC-2998 colon it was 40.3 µM; in the assay on K-562 leukemia, 41.5 µM; in the assay with KM20L2 colon, 96.7 µM; with M19-MEL melanoma, 45 µM. For the same molecule, the TGI in the assay on NCI-H522 lung was 73.3 µM; in the assay with SK-MEL-28 melanoma, 94.3 µM; in the assay on SNB-75 CNS, 82 µM.

These data come from PubChem BioAssay (NCI).
